Experimental data taken from patent US4172782A, “Recovery of catalyst” (Sumitomo Chemical Company, Limited, priority 1977, dated 1979).

Test: Solubility of tetra-n-butylammonium bromide in aqueous sodium hydroxide solutions
Type: physicochemical
Details: aqueous NaOH, 20° C.
Method: The organic quaternary ammonium salt is soluble both in water and in the oil layer. Its solubility in an aqueous alkali solution varies with the concentration of the alkali. The solubilities of tetra-n-butylammonium bromide, as an example of organic quaternary ammonium salts, in aqueous sodium hydroxide solutions were measured at 20° C. and the results obtained were as shown in Table 1.

CCCC[N+](CCCC)(CCCC)CCCC.[Br-] [tetra-n-butylammonium bromide]
Solubility of tetra-n-butylammonium bromide (1% by wt.): 27 % by wt. | Solubility of tetra-n-butylammonium bromide (2% by wt.): 11 % by wt. | Solubility of tetra-n-butylammonium bromide (5% by wt.): 2.4 % by wt. | Solubility of tetra-n-butylammonium bromide (10% by wt.): 1.2 % by wt. | Solubility of tetra-n-butylammonium bromide (15% by wt.): 0.07 % by wt.
